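At the GI50, growth is halved. TGI denotes the concentration required for complete inhibition of growth.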
Columns and labels:
Assay in all cases: NCI anticancer screen, dose series, 384-well format
SK-MEL-2 melanoma = system: SK-MEL-2 melanoma
MDA-MB-231 breast = system: MDA-MB-231 breast
HOP-62 NSCLC = system: HOP-62 NSCLC
CCRF-CEM leukemia = system: CCRF-CEM leukemia
SR leukemia = system: SR leukemia
NCI-H522 lung = system: NCI-H522 lung
TK-10 renal = system: TK-10 renal
RPMI-8226 leukemia = system: RPMI-8226 leukemia
A549 NSCLC = system: A549 NSCLC
HCT-116 colon = system: HCT-116 colon
HOP-92 NSCLC = system: HOP-92 NSCLC
MCF7 breast = system: MCF7 breast
SN12C renal = system: SN12C renal
MDA-MB-468 breast = system: MDA-MB-468 breast
NCI-H460 NSCLC = system: NCI-H460 NSCLC
COLO 205 colon = system: COLO 205 colon
NCI-H226 lung = system: NCI-H226 lung
SF-295 CNS = system: SF-295 CNS
OVCAR-4 ovarian = system: OVCAR-4 ovarian
RXF 393 renal = system: RXF 393 renal
MALME-3M melanoma = system: MALME-3M melanoma
U251 glioblastoma = system: U251 glioblastoma
HS 578T breast = system: HS 578T breast
SK-MEL-28 melanoma = system: SK-MEL-28 melanoma
K-562 leukemia = system: K-562 leukemia
T-47D breast = system: T-47D breast
NCI/ADR-RES ovarian = system: NCI/ADR-RES ovarian
DU-145 prostate = system: DU-145 prostate
ACHN renal = system: ACHN renal
IGROV1 ovarian = system: IGROV1 ovarian
HCC-2998 colon = system: HCC-2998 colon
MDA-MB-435 melanoma = system: MDA-MB-435 melanoma
UACC-257 melanoma = system: UACC-257 melanoma
SW-620 colon = system: SW-620 colon
786-0 renal = system: 786-0 renal
SK-MEL-5 melanoma = system: SK-MEL-5 melanoma
OVCAR-5 ovarian = system: OVCAR-5 ovarian
SK-OV-3 ovarian = system: SK-OV-3 ovarian
NCI-H322M lung = system: NCI-H322M lung
OVCAR-3 ovarian = system: OVCAR-3 ovarian
SNB-19 CNS = system: SNB-19 CNS
SNB-75 CNS = system: SNB-75 CNS
HL-60(TB) leukemia = system: HL-60(TB) leukemia
M14 melanoma = system: M14 melanoma
LOX IMVI melanoma = system: LOX IMVI melanoma
UACC-62 melanoma = system: UACC-62 melanoma
PC-3 prostate = system: PC-3 prostate

Structure (SMILES): Cn1cc(CNCC2CCN(c3ncc(C(=O)NO)cn3)CC2)c2ccccc21
- GI50 (SK-MEL-2 melanoma): < 10 nM
- TGI (SK-MEL-2 melanoma): 10.6 nM
- GI50 (MDA-MB-231 breast): 14.3 nM
- TGI (MDA-MB-231 breast): 37.2 nM
- GI50 (HOP-62 NSCLC): < 11.8 nM
- TGI (HOP-62 NSCLC): 62.1 nM
- GI50 (CCRF-CEM leukemia): < 10 nM
- TGI (CCRF-CEM leukemia): < 10.8 nM
- GI50 (SR leukemia): < 10 nM
- TGI (SR leukemia): < 10 nM
- GI50 (NCI-H522 lung): < 10 nM
- TGI (NCI-H522 lung): 20.8 nM
- GI50 (TK-10 renal): 12.2 nM
- TGI (TK-10 renal): 38.3 nM
- GI50 (RPMI-8226 leukemia): < 10 nM
- TGI (RPMI-8226 leukemia): < 10 nM
- GI50 (A549 NSCLC): 11.9 nM
- TGI (A549 NSCLC): 32.1 nM
- GI50 (HCT-116 colon): < 10 nM
- TGI (HCT-116 colon): 15.7 nM
- GI50 (HOP-92 NSCLC): < 12.2 nM
- TGI (HOP-92 NSCLC): 31.7 nM
- GI50 (MCF7 breast): < 10 nM
- TGI (MCF7 breast): 20.9 nM
- GI50 (SN12C renal): 14.1 nM
- TGI (SN12C renal): 29.7 nM
- GI50 (MDA-MB-468 breast): < 10 nM
- TGI (MDA-MB-468 breast): < 10 nM
- GI50 (NCI-H460 NSCLC): < 11.1 nM
- TGI (NCI-H460 NSCLC): 37.1 nM
- GI50 (COLO 205 colon): < 10 nM
- TGI (COLO 205 colon): 18.3 nM
- GI50 (NCI-H226 lung): 31.9 nM
- TGI (NCI-H226 lung): 115 nM
- GI50 (SF-295 CNS): 16.1 nM
- TGI (SF-295 CNS): 54.4 nM
- GI50 (OVCAR-4 ovarian): 18.9 nM
- TGI (OVCAR-4 ovarian): 46.6 nM
- GI50 (RXF 393 renal): 16.2 nM
- TGI (RXF 393 renal): 35.5 nM
- GI50 (MALME-3M melanoma): < 10 nM
- TGI (MALME-3M melanoma): < 14.5 nM
- GI50 (U251 glioblastoma): 11.3 nM
- TGI (U251 glioblastoma): 24.1 nM
- GI50 (HS 578T breast): < 10.4 nM
- TGI (HS 578T breast): 22.4 nM
- GI50 (SK-MEL-28 melanoma): < 11 nM
- TGI (SK-MEL-28 melanoma): 27.6 nM
- GI50 (K-562 leukemia): < 10.5 nM
- TGI (K-562 leukemia): 22.6 nM
- GI50 (T-47D breast): < 10 nM
- TGI (T-47D breast): 15.5 nM
- GI50 (NCI/ADR-RES ovarian): 94.9 nM
- TGI (NCI/ADR-RES ovarian): 329 nM
- GI50 (DU-145 prostate): < 10 nM
- TGI (DU-145 prostate): 22.9 nM
- GI50 (ACHN renal): 14.3 nM
- TGI (ACHN renal): 34.9 nM
- GI50 (IGROV1 ovarian): 10.2 nM
- TGI (IGROV1 ovarian): 23.7 nM
- GI50 (HCC-2998 colon): < 11.1 nM
- TGI (HCC-2998 colon): 24.8 nM
- GI50 (MDA-MB-435 melanoma): 12.1 nM
- TGI (MDA-MB-435 melanoma): 29.7 nM
- GI50 (UACC-257 melanoma): < 10 nM
- TGI (UACC-257 melanoma): 23.6 nM
- GI50 (SW-620 colon): 12.9 nM
- TGI (SW-620 colon): 26.2 nM
- GI50 ([…]-0 renal): 22.8 nM
- TGI (786-0 renal): 120 nM
- GI50 (SK-MEL-5 melanoma): < 10 nM
- TGI (SK-MEL-5 melanoma): < 10 nM
- GI50 (OVCAR-5 ovarian): < 10 nM
- TGI (OVCAR-5 ovarian): 23.6 nM
- GI50 (SK-OV-3 ovarian): 15.5 nM
- TGI (SK-OV-3 ovarian): 32.9 nM
- GI50 (NCI-H322M lung): 12.3 nM
- TGI (NCI-H322M lung): 40.5 nM
- GI50 (OVCAR-3 ovarian): 12.2 nM
- TGI (OVCAR-3 ovarian): 28.6 nM
- GI50 (SNB-19 CNS): 17.3 nM
- TGI (SNB-19 CNS): 45.7 nM
- GI50 (SNB-75 CNS): 10.1 nM
- TGI (SNB-75 CNS): 46.1 nM
- GI50 (HL-60(TB) leukemia): < 10 nM
- TGI (HL-60(TB) leukemia): < 10 nM
- GI50 (M14 melanoma): < 10 nM
- TGI (M14 melanoma): 105 nM
- GI50 (LOX IMVI melanoma): 12.1 nM
- TGI (LOX IMVI melanoma): 24.9 nM
- GI50 (UACC-62 melanoma): < 10 nM
- TGI (UACC-62 melanoma): 14.9 nM
- GI50 (PC-3 prostate): < 12.3 nM
- TGI (PC-3 prostate): 46.2 nM

Source: PubChem BioAssay (NCI)
